Measurements as given in ChEMBL document CHEMBL3286359, “Synthesis and SAR of substituted pyrazolo[1,5-a]quinazolines as dual mGlu(2)/mGlu(3) NAMs” (Bioorg Med Chem Lett, 2014).
Calls of active or inactive are those of the source. The rule behind the calls is not given here.

Legend:
Type in all cases: functional, cell-based
[1] = target: Metabotropic glutamate receptor 3 (Rattus norvegicus) (UniProt P31422); experiment: Positive allosteric modulatory activity at rat mGlu3 receptor transfected in HEK293 cells co-expressing mouse Galpha15 assessed as potentiation of glutamate-dependent calcium signaling at 3 uM by fluorescence plate reader analysis in presence of glutamate at EC20 concentration
Metabotropic glutamate receptor 3 (Rattus norvegicus), sequence (P31422 23-879 limits assumed): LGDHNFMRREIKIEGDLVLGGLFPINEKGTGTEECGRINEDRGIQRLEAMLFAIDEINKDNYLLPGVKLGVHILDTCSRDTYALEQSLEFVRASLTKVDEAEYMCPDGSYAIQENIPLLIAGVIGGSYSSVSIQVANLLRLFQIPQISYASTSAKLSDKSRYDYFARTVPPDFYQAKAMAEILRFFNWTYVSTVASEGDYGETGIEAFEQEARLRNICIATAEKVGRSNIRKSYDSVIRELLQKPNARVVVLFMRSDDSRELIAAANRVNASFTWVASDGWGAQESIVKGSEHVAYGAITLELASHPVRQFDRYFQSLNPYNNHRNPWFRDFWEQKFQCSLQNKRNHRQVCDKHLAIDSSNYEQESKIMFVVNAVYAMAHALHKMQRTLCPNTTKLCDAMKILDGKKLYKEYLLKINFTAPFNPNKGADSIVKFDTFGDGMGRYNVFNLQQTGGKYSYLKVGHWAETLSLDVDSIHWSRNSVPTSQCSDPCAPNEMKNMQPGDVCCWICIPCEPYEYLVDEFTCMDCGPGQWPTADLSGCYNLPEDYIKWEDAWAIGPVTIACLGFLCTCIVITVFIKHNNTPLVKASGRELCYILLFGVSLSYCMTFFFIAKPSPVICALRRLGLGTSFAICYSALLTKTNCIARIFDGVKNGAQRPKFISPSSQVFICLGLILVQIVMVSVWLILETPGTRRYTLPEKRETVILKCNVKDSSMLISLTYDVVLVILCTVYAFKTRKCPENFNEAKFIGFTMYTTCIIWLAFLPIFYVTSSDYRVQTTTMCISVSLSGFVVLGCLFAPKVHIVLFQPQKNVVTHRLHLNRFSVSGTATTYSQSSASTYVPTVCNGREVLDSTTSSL

[2] = target: Metabotropic glutamate receptor 2 (Rattus norvegicus) (UniProt P31421); experiment: Positive allosteric modulatory activity at rat mGlu2 receptor transfected in HEK293 cells co-expressing mouse Galpha15 assessed as potentiation of glutamate-dependent calcium signaling at 3 uM by fluorescence plate reader analysis in presence of glutamate at EC20 concentration
Metabotropic glutamate receptor 2 (Rattus norvegicus), sequence (P31421 19-872 limits assumed): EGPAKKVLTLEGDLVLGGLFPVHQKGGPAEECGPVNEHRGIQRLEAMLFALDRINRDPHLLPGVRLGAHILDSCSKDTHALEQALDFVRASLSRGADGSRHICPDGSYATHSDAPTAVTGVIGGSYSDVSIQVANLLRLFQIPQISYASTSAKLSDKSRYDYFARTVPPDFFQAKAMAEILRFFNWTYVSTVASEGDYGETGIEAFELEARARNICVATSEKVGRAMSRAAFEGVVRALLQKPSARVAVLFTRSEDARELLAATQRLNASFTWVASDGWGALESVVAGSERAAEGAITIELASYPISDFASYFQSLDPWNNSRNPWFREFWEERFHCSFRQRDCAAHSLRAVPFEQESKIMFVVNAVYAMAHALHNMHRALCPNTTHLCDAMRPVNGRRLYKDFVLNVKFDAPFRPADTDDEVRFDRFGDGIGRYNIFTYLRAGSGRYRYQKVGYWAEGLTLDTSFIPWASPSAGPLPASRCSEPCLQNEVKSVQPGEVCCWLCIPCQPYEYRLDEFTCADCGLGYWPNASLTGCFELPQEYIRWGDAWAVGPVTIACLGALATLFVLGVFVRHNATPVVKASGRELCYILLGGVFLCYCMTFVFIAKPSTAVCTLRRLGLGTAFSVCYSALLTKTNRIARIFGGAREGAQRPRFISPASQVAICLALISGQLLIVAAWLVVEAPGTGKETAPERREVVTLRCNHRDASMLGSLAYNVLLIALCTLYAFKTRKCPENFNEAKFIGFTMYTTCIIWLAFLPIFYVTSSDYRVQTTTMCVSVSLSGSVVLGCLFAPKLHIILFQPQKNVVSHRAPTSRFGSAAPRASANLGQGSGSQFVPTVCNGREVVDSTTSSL

[3] = target: Metabotropic glutamate receptor 2 (Rattus norvegicus, UniProt P31421); experiment: Inhibition of rat mGlu2 receptor transfected in HEK293 cells coexpressing mouse Galpha15 assessed as decrease in glutamate-induced calcium signaling by fluorescence plate reader analysis in presence of glutamate at EC76 concentration
Metabotropic glutamate receptor 2, sequence (P31421 whole entry): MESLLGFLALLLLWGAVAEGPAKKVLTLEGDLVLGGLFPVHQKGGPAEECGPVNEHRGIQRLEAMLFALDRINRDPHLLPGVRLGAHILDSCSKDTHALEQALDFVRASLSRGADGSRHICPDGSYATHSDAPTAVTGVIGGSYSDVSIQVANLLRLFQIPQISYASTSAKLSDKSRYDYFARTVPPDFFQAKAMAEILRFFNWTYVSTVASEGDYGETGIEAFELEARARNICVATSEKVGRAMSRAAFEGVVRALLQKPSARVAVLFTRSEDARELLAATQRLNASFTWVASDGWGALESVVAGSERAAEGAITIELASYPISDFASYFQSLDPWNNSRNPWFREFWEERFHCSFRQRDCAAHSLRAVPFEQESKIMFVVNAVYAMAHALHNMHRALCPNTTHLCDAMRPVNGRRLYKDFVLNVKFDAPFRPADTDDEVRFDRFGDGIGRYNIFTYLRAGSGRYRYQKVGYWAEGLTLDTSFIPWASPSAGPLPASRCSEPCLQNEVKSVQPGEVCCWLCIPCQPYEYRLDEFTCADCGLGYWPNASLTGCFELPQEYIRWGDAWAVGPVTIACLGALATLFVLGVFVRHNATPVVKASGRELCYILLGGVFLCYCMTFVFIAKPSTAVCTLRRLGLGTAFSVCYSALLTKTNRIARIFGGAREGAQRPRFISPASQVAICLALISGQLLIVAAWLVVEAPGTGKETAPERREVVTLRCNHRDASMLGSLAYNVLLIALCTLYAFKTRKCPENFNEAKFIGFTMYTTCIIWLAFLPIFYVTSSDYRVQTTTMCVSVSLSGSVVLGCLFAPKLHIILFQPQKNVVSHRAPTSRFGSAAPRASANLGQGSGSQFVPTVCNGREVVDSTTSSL

[4] = target: Metabotropic glutamate receptor 3 (Rattus norvegicus, UniProt P31422); experiment: Inhibition of rat mGlu3 receptor transfected in HEK293 cells coexpressing mouse Galpha15 assessed as decrease in glutamate-induced calcium signaling by fluorescence plate reader analysis in presence of glutamate at EC87 concentration
Metabotropic glutamate receptor 3, sequence (P31422 whole entry): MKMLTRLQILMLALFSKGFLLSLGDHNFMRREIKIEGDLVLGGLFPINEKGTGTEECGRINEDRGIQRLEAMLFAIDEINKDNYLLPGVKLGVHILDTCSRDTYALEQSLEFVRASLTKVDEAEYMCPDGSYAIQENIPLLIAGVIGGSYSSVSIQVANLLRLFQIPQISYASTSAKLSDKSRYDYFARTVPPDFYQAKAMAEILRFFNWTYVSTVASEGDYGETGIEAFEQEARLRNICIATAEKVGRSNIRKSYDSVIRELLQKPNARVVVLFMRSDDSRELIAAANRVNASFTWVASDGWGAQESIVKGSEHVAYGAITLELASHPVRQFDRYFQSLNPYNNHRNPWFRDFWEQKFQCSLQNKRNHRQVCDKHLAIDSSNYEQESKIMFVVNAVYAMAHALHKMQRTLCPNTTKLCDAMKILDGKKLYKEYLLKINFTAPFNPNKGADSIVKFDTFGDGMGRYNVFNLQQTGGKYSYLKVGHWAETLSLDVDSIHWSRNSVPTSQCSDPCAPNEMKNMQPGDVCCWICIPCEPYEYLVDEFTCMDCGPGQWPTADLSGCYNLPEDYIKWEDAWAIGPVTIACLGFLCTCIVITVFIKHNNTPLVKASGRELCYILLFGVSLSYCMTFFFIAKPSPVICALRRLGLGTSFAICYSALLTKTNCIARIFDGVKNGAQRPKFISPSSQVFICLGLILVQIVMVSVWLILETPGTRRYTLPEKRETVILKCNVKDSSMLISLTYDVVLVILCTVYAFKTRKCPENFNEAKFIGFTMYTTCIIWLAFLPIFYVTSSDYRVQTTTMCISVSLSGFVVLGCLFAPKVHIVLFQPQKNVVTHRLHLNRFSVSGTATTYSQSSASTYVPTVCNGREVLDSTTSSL

[5] = target: Metabotropic glutamate receptor 2 (Rattus norvegicus) (UniProt P31421); experiment: Inhibition of rat mGlu2 receptor transfected in HEK293 cells coexpressing mouse Galpha15 assessed as decrease in glutamate-induced calcium signaling at 1 uM by fluorescence plate reader analysis in presence of glutamate at EC76 concentration
[6] = target: Metabotropic glutamate receptor 3 (Rattus norvegicus) (UniProt P31422); experiment: Inhibition of rat mGlu3 receptor transfected in HEK293 cells coexpressing mouse Galpha15 assessed as decrease in glutamate-induced calcium signaling at 1 uM by fluorescence plate reader analysis in presence of glutamate at EC87 concentration
[7] = target: Metabotropic glutamate receptor 2 (Rattus norvegicus) (UniProt P31421); experiment: Inhibition of rat mGlu2 receptor transfected in HEK293 cells coexpressing mouse Galpha15 assessed as decrease in glutamate-induced calcium signaling at 3 uM by fluorescence plate reader analysis in presence of glutamate at EC76 concentration
[8] = target: Metabotropic glutamate receptor 3 (Rattus norvegicus) (UniProt P31422); experiment: Inhibition of rat mGlu3 receptor transfected in HEK293 cells coexpressing mouse Galpha15 assessed as decrease in glutamate-induced calcium signaling at 3 uM by fluorescence plate reader analysis in presence of glutamate at EC87 concentration

In the case of Cn1c(=O)c2ccc(-c3cccc(S(N)(=O)=O)c3)cc2n2nc(-c3cccc(F)c3)cc12, the Activity [1] is reported as “inactive”, the Activity [2] is reported as “inactive” and the IC50 [3] is reported as greater than 10000 nM. For the same molecule, the IC50 [4] was greater than 10000 nM.
For Cn1c(=O)c2ccc(-c3cccnc3)cc2n2nc(-c3ccc(Cl)cc3)cc12, the Activity [1] was “inactive”, the Activity [2] was “inactive” and the IC50 [3] was 1110 nM. The IC50 [4] was 645 nM, the inhibition [5] was 60% and the inhibition [6] was 60%.
With Cn1c(=O)c2ccc(-c3ccccc3)cc2n2nc(-c3cccc(Br)c3)cc12 the Activity [1] was “inactive”, the Activity [2] was “inactive” and the inhibition [7] was 8%. The inhibition [8] was 28%.
For O=c1c2ccc(-c3cccnc3)cc2n2nc(-c3ccccc3)cc2n1CCO, the IC50 [3] was 4650 nM and the IC50 [4] was 3150 nM.
With Cn1c(=O)c2ccc(-c3cccnc3)cc2n2nc(-c3cccc(Br)c3)cc12 the Activity [1] was “inactive”, the Activity [2] was “inactive” and the IC50 [3] was greater than 10000 nM. It also gave an IC50 [4] greater than 10000 nM.
Cc1ccc2c(=O)n(C)c3cc(-c4ccc(Cl)cc4)nn3c2c1 was tested, and the Activity [1] was “inactive”, the Activity [2] was “inactive” and the inhibition [7] was 11%. It also gave an inhibition [8] of 33%, an inhibition [5] of 60% and an inhibition [6] of 60%.
With Cn1c(=O)c2ccc(-c3ccc4nccnc4c3)cc2n2nc(-c3ccccc3)cc12 the inhibition [7] was 0% and the inhibition [8] was 16%.
In the case of COc1ccc(-c2ccc3c(=O)n(C)c4cc(-c5ccc(Cl)cc5)nn4c3c2)cc1, the Activity [1] is reported as “inactive”, the Activity [2] is reported as “inactive” and the inhibition [7] is reported as 6%. The inhibition [8] was 21%, the inhibition [5] was 60% and the inhibition [6] was 60%.
For Cn1c(=O)c2ccc(-c3cccc(S(N)(=O)=O)c3)cc2n2nc(-c3ccc(F)cc3)cc12, the Activity [1] was “inactive”, the Activity [2] was “inactive” and the IC50 [3] was 3950 nM. For the same molecule, the IC50 [4] was 1990 nM.
With Cn1c(=O)c2ccc(-c3ccc4cn[nH]c4c3)cc2n2nc(-c3ccccc3)cc12 the IC50 [3] was greater than 10000 nM and the IC50 [4] was greater than 10000 nM.
For Cn1c(=O)c2ccc(-c3ccccc3)cc2n2nc(-c3ccc(Cl)cc3)cc12, the Activity [1] was “inactive”, the Activity [2] was “inactive” and the inhibition [7] was 4%. It also gave an inhibition [8] of 31%, an inhibition [5] of 60% and an inhibition [6] of 60%.
With Cc1cccc(-c2cc3n(C)c(=O)c4ccc(-c5ccccc5)cc4n3n2)c1 the Activity [1] was “inactive”, the Activity [2] was “inactive” and the inhibition [7] was 7%. The inhibition [8] was 49%.
For Cn1c(=O)c2ccc(-c3ccccc3)cc2n2nc(-c3ccccc3)cc12, the Activity [1] was “inactive”, the Activity [2] was “inactive” and the IC50 [3] was greater than 10000 nM. It also gave an IC50 [4] greater than 10000 nM.
In the case of COc1ccc(-c2ccc3c(=O)n(C)c4cc(-c5ccc(F)cc5)nn4c3c2)cc1, the Activity [1] is reported as “inactive”, the Activity [2] is reported as “inactive” and the IC50 [3] is reported as greater than 10000 nM. For the same molecule, the IC50 [4] was greater than 10000 nM.
Cc1ccc2c(=O)n(C)c3cc(-c4ccc(F)cc4)nn3c2c1 was tested, and the Activity [1] was “inactive”, the Activity [2] was “inactive” and the IC50 [3] was greater than 10000 nM. It also gave an IC50 [4] greater than 10000 nM.
O=c1[nH]c2cc(-c3ccccc3)nn2c2cc(-c3ccccc3)ccc12 gave an inhibition [7] of 2% and an inhibition [8] of 6%.
In the case of COc1ccc(-c2ccc3c(=O)n(C)c4cc(-c5cccc(OC)c5)nn4c3c2)cc1, the Activity [1] is reported as “inactive”, the Activity [2] is reported as “inactive” and the inhibition [7] is reported as 6%. For the same molecule, the inhibition [8] was 48%.
CC(=O)n1c(=O)c2ccc(-c3cccnc3)cc2n2nc(-c3ccccc3)cc12 was tested, and the IC50 [3] was greater than 10000 nM and the IC50 [4] was greater than 10000 nM.
With Cn1c(=O)c2ccc(-c3cccnc3)cc2n2nc(-c3ccccc3)cc12 the Activity [1] was “inactive”, the Activity [2] was “inactive” and the IC50 [3] was 852 nM. It also gave an IC50 [4] of 165 nM.
COc1ccc(-c2ccc3c(=O)n(C)c4cc(-c5cccc(Cl)c5)nn4c3c2)cc1 was tested, and the Activity [1] was “inactive”, the Activity [2] was “inactive” and the inhibition [7] was 9%. For the same molecule, the inhibition [8] was 31%.
In the case of COc1cccc(-c2cc3n(C)c(=O)c4ccc(-c5cccnc5)cc4n3n2)c1, the Activity [1] is reported as “inactive”, the Activity [2] is reported as “inactive” and the IC50 [3] is reported as 3120 nM. It also gave an IC50 [4] of 1180 nM.
O=c1c2ccc(-c3ccccc3)cc2n2nc(-c3ccccc3)cc2n1CCO was tested, and the inhibition [7] was 0% and the inhibition [8] was 3%.
For Cc1cccc(-c2cc3n(C)c(=O)c4ccc(-c5cccnc5)cc4n3n2)c1, the Activity [1] was “inactive”, the Activity [2] was “inactive” and the IC50 [3] was 1790 nM. It also gave an IC50 [4] of 530 nM.
In the case of COc1cccc(-c2cc3n(C)c(=O)c4ccc(C)cc4n3n2)c1, the Activity [1] is reported as “inactive”, the Activity [2] is reported as “inactive” and the IC50 [3] is reported as greater than 10000 nM. For the same molecule, the IC50 [4] was greater than 10000 nM.
With Cn1c(=O)c2ccc(-c3cccc(S(N)(=O)=O)c3)cc2n2nc(-c3ccccc3)cc12 the Activity [1] was “inactive”, the Activity [2] was “inactive” and the IC50 [4] was 884 nM.
In the case of Cn1c(=O)c2ccc(-c3ccncc3)cc2n2nc(-c3ccccc3)cc12, the IC50 [3] is reported as 1770 nM and the IC50 [4] is reported as 509 nM.
Cn1c(=O)c2ccc(-c3cccnc3)cc2n2nc(-c3ccc(F)cc3)cc12 was tested, and the Activity [1] was “inactive”, the Activity [2] was “inactive” and the IC50 [3] was 427 nM. For the same molecule, the IC50 [4] was 67 nM.
With Cn1c(=O)c2ccc(-c3cccc(S(N)(=O)=O)c3)cc2n2nc(-c3ccc(Cl)cc3)cc12 the Activity [1] was “inactive”, the Activity [2] was “inactive” and the IC50 [3] was 847 nM. For the same molecule, the IC50 [4] was 1250 nM, the inhibition [5] was 60% and the inhibition [6] was 60%.
Cn1c(=O)c2ccc(-c3cnc4ccccc4c3)cc2n2nc(-c3ccccc3)cc12 was tested, and the inhibition [7] was 4% and the inhibition [8] was 33%.
In the case of COc1ccc(-c2ccc3c(=O)n(C)c4cc(-c5cccc(C)c5)nn4c3c2)cc1, the Activity [1] is reported as “inactive”, the Activity [2] is reported as “inactive” and the inhibition [7] is reported as 0%. The inhibition [8] was 34%.
For COc1cccc(-c2cc3n(C)c(=O)c4ccc(-c5ccccc5)cc4n3n2)c1, the Activity [1] was “inactive”, the Activity [2] was “inactive” and the IC50 [3] was greater than 10000 nM. For the same molecule, the IC50 [4] was greater than 10000 nM.
For COc1ccc(-c2ccc3c(=O)n(C)c4cc(-c5ccccc5)nn4c3c2)cc1, the Activity [1] was “inactive”, the Activity [2] was “inactive” and the inhibition [8] was 0%.
For Cn1c(=O)c2ccc(-c3ccccc3)cc2n2nc(-c3ccc(F)cc3)cc12, the Activity [1] was “inactive”, the Activity [2] was “inactive” and the inhibition [7] was 12%. The inhibition [8] was 64%.
Cc1ccc2c(=O)n(C)c3cc(-c4cccc(F)c4)nn3c2c1 was tested, and the Activity [1] was “inactive”, the Activity [2] was “inactive” and the inhibition [7] was 16%. It also gave an inhibition [8] of 38%.
With COc1cccc(-c2cc3n(C)c(=O)c4ccc(-c5cccc(S(N)(=O)=O)c5)cc4n3n2)c1 the Activity [1] was “inactive”, the Activity [2] was “inactive” and the IC50 [3] was 1390 nM. For the same molecule, the IC50 [4] was 696 nM.
In the case of Cn1c(=O)c2ccc(-c3ccccc3)cc2n2nc(-c3cccc(F)c3)cc12, the Activity [1] is reported as “inactive”, the Activity [2] is reported as “inactive” and the inhibition [7] is reported as 2%. For the same molecule, the inhibition [8] was 39%.
CC(=O)n1c(=O)c2ccc(-c3ccccc3)cc2n2nc(-c3ccccc3)cc12 gave an inhibition [7] of 3% and an inhibition [8] of 8%.
Molecule Cn1c(=O)c2ccc(-c3ccc4cc[nH]c4c3)cc2n2nc(-c3ccccc3)cc12 has an inhibition [7] of 9% and an inhibition [8] of 34%.
In the case of COc1ccc(-c2ccc3c(=O)n(C)c4cc(-c5cccc(Br)c5)nn4c3c2)cc1, the Activity [1] is reported as “inactive”, the Activity [2] is reported as “inactive” and the inhibition [7] is reported as 4%. The inhibition [8] was 23%.
In the case of Cn1c(=O)c2ccc(-c3ccccc3)cc2n2nc(-c3cccc(Cl)c3)cc12, the Activity [1] is reported as “inactive”, the Activity [2] is reported as “inactive” and the inhibition [7] is reported as 7%. It also gave an inhibition [8] of 19%.
O=c1[nH]c2cc(-c3ccccc3)nn2c2cc(-c3cccnc3)ccc12 showed an inhibition [7] of 4% and an inhibition [8] of 8%.
With Cn1c(=O)c2ccc(-c3cccnc3)cc2n2nc(-c3cccc(Cl)c3)cc12 the Activity [1] was “inactive”, the Activity [2] was “inactive” and the IC50 [3] was 564 nM. The IC50 [4] was 293 nM.
For Cn1c(=O)c2ccc(-c3cccnc3)cc2n2nc(-c3cccc(F)c3)cc12, the Activity [1] was “inactive”, the Activity [2] was “inactive” and the IC50 [3] was 1560 nM. It also gave an IC50 [4] of 247 nM.
For COc1ccc(-c2ccc3c(=O)n(C)c4cc(-c5cccc(F)c5)nn4c3c2)cc1, the Activity [1] was “inactive”, the Activity [2] was “inactive” and the inhibition [7] was 6%. For the same molecule, the inhibition [8] was 2%.
Molecule Cn1c(=O)c2ccc(-c3ccc4ccncc4c3)cc2n2nc(-c3ccccc3)cc12 has an IC50 [3] greater than 10000 nM and an IC50 [4] of 4510 nM.
Cc1ccc2c(=O)n(C)c3cc(-c4ccccc4)nn3c2c1 was tested, and the Activity [1] was “inactive”, the Activity [2] was “inactive” and the inhibition [7] was 17%. For the same molecule, the inhibition [8] was 59%.
